Measurements: patent publication US9657047B2, “Crystallization of epirubicin hydrochloride” (MEDAC GESELLSCHAFT FÜR KLINISCHE SPEZIALPRÄPARATE MBH, priority 2011, dated 2017)

Assay: test of thermal stability (storage at 40° C.)
Format: physicochemical
Conditions: two weeks and three weeks; for decomposition on storage (thermal stability): crystals stored at 40° C. for one week
Experimental: The produced crystalline epirubicin hydrochloride was subjected to a test of thermal stability. For this purpose, the produced crystals were stored at a temperature of 40° C. for a time period of one week, two weeks, and three weeks. […] Instead, the crystals remained in unchanged form.
The epirubicin hydrochloride produced was subjected to a test of thermal stability. For this purpose, the epirubicin hydrochloride was stored at a temperature of 40° C. for a time period of one week, two weeks, and three weeks. Within this time frame, a thermal decomposition of epirubicin hydrochloride amplified with increasing storage period by two percent respectively was observed.

decomposition on storage (thermal stability) | thermal decomposition amplified with increasing storage period (stored at 40° C. for one week, increase per storage period) | SMILES
no decomposition |  | COc1cccc2c1C(=O)c1c(O)c3c(c(O)c1C2=O)C[C@@](O)(C(=O)CO)C[C@@H]3O[C@H]1C[C@H](N)[C@@H](O)[C@H](C)O1.Cl [Example 2, epirubicin hydrochloride]
no decomposition |  | COc1cccc2c1C(=O)c1c(O)c3c(c(O)c1C2=O)C[C@@](O)(C(=O)CO)C[C@@H]3O[C@H]1C[C@H](N)[C@@H](O)[C@H](C)O1.Cl [Example 1, epirubicin hydrochloride]
 | two | COc1cccc2c1C(=O)c1c(O)c3c(c(O)c1C2=O)C[C@@](O)(C(=O)CO)C[C@@H]3O[C@H]1C[C@H](N)[C@@H](O)[C@H](C)O1.Cl [Comparison Example 1, epirubicin hydrochloride]
